Measured values from ChEMBL document CHEMBL1909046, “DrugMatrix in vitro pharmacology data”.

What was measured:
[1] = DRUGMATRIX: Glutamate, NMDA, Agonism radioligand binding (ligand: [3H] CGP-39653); type: cell membranes, Rattus norvegicus, Wistar, Cerebral cortex, Membrane; settings: Not Active = under 50% inhibition at 10 µM
[2] = DRUGMATRIX: Serotonin (5-Hydroxytryptamine) 5-HT3 radioligand binding (ligand: [3H] GR-65630); type: cell membranes, Membrane; settings: hek293; Not Active = under 50% inhibition at 10 µM
[3] = DRUGMATRIX: Phosphodiesterase PDE4 enzyme inhibition (substrate: [3H]cAMP + cAMP); settings: u-937; Not Active = under 50% inhibition at 10 µM
[4] = target: Carbonic anhydrase 2 (Homo sapiens, UniProt P00918); assay: DRUGMATRIX: Carbonic Anhydrase II enzyme inhibition (substrate: 4-Nitrophenyl acetate (4-NPA)); type: tissue-based, Erythrocyte; settings: erythrocyte; Not Active = under 50% inhibition at 10 µM
[5] = target: Sodium-dependent dopamine transporter (Homo sapiens, UniProt Q01959); assay: DRUGMATRIX: Dopamine Transporter radioligand binding (ligand: [125I] RTI-55); type: cell membranes, CHO-K1, Membrane; settings: Not Active = under 50% inhibition at 10 µM
[6] = target: T1, Muscarinic acetylcholine receptor M4 (Homo sapiens, UniProt P08173); type: cell membranes, CHO-K1, Membrane; settings: cho-k1; note: in other assays of this panel Not Active means under 50% inhibition at 10 µM
T1 sequence (P08173 whole entry): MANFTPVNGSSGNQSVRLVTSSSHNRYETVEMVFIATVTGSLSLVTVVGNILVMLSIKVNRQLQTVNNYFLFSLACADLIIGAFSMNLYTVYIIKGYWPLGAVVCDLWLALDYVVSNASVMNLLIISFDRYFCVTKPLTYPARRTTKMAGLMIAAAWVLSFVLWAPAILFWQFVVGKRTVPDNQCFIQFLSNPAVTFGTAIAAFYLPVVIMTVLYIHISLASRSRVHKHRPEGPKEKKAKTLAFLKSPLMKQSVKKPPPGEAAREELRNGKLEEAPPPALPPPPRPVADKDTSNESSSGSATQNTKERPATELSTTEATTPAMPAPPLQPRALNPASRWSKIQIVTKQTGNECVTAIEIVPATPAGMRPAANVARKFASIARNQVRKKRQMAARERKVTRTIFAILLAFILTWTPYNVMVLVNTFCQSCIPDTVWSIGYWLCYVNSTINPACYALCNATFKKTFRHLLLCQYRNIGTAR

[7] = target: Tyrosine-protein kinase Fyn (Homo sapiens, UniProt P06241); assay: biochemical; type: cell-based, Insect cells;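 note: enzymatic inhibition of Fyn kinase activity measured with Poly(Glu:Tyr) as the phosphorylation substrate; in other assays of this panel Not Active means under 50% inhibition at 10 µM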
[8] = target: T2, Neuropeptide Y receptor type 1 (Homo sapiens, UniProt P25929); type: cell membranes, Membrane; settings: sk-n-mc; note: in other assays of this panel Not Active means under 50% inhibition at 10 µM
T2 sequence (P25929 whole entry): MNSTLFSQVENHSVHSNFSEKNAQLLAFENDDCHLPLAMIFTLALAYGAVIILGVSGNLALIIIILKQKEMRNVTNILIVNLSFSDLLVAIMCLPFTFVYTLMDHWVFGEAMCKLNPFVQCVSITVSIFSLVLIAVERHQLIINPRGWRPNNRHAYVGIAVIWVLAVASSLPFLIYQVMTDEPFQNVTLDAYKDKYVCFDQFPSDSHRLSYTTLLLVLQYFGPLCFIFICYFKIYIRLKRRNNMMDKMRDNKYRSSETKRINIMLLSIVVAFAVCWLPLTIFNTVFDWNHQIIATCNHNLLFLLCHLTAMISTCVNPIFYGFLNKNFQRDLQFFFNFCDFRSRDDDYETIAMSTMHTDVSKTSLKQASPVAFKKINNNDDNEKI

[9] = target: T3, Substance-K receptor (Homo sapiens, UniProt P21452); type: cell membranes, CHO, Membrane; settings: cho; note: in other assays of this panel Not Active means under 50% inhibition at 10 µM
T3 sequence (P21452 whole entry): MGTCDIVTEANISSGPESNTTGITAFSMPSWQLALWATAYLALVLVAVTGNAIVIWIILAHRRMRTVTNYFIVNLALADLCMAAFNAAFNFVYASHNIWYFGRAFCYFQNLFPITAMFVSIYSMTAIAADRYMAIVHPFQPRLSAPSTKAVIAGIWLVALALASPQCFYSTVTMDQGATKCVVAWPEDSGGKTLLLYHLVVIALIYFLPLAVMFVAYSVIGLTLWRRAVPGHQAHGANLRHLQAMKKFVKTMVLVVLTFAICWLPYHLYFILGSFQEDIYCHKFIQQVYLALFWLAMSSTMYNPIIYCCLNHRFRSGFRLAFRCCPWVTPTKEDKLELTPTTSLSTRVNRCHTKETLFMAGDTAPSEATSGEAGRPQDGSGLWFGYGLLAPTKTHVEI

[10] = DRUGMATRIX: Nicotinic Acetylcholine radioligand binding (ligand: [125I] Epibatidine); type: cell membranes, Membrane; settings: imr-32; Not Active = under 50% inhibition at 10 µM
[11] = target: T4, Muscarinic acetylcholine receptor M5 (Homo sapiens, UniProt P08912); type: cell membranes, CHO-K1, Membrane; settings: cho-k1; note: in other assays of this panel Not Active means under 50% inhibition at 10 µM
T4 sequence (P08912 whole entry): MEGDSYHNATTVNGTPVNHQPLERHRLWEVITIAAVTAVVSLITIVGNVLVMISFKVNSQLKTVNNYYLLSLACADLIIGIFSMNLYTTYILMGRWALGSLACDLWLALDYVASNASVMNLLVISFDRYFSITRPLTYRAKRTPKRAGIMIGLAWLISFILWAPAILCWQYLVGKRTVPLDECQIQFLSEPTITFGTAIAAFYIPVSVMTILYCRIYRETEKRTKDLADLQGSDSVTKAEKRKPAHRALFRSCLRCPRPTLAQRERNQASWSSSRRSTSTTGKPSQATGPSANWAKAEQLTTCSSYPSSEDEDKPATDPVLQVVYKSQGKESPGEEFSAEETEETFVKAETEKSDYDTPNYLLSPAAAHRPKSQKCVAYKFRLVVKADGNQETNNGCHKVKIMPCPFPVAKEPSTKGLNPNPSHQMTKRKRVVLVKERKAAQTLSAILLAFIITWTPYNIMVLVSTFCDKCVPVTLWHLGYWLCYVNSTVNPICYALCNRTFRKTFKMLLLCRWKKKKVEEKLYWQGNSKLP

[12] = target: Mu-type opioid receptor (Homo sapiens, UniProt P35372); assay: DRUGMATRIX: Opiate mu (OP3, MOP) radioligand binding (ligand: [3H] Diprenorphine); type: cell membranes, CHO-K1, Membrane; settings: cho-k1; Not Active = under 50% inhibition at 10 µM
[13] = target: Histamine H2 receptor (Homo sapiens, UniProt P25021); type: cell membranes, CHO-K1, Membrane; settings: cho-k1; note: in other assays of this panel Not Active means under 50% inhibition at 10 µM
Chain of Histamine H2 receptor (P25021 whole entry): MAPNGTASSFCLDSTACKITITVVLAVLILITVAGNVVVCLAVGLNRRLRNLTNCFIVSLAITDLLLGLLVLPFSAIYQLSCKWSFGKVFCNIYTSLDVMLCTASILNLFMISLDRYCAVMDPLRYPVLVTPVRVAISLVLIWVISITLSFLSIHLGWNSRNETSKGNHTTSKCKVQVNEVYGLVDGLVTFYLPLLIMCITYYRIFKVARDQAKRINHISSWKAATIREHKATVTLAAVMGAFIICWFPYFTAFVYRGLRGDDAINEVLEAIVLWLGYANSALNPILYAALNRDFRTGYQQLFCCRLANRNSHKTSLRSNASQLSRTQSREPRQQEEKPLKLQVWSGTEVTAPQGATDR

Chain of Sodium-dependent dopamine transporter (Q01959 whole entry): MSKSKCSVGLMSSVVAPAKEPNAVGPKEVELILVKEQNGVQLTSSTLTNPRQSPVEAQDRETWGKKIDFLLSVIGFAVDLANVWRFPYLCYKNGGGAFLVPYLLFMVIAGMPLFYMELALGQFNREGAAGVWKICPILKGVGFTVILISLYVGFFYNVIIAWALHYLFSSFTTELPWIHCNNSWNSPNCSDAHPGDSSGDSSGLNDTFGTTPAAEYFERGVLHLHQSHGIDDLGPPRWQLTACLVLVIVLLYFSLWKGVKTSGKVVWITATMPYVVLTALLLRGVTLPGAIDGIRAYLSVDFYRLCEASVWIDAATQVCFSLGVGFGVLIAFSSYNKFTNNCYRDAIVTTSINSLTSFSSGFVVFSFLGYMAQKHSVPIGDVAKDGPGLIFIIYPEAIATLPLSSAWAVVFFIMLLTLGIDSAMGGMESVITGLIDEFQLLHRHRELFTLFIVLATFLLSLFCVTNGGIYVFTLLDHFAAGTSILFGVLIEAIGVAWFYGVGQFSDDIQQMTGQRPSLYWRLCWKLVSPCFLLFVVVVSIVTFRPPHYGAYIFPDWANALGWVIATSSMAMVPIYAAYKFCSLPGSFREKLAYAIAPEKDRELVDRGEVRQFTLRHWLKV
Chain of Mu-type opioid receptor (P35372 whole entry): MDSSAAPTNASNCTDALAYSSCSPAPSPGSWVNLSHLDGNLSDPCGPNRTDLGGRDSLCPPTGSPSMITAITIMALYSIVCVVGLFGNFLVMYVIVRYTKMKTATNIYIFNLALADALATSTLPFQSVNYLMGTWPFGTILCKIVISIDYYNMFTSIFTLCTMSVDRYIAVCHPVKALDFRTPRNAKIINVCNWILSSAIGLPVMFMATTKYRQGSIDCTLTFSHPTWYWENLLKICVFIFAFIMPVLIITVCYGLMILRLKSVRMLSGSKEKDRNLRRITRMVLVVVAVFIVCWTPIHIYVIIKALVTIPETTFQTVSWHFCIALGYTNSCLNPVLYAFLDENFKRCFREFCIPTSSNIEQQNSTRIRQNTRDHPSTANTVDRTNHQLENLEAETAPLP
Chain of Tyrosine-protein kinase Fyn (P06241 whole entry): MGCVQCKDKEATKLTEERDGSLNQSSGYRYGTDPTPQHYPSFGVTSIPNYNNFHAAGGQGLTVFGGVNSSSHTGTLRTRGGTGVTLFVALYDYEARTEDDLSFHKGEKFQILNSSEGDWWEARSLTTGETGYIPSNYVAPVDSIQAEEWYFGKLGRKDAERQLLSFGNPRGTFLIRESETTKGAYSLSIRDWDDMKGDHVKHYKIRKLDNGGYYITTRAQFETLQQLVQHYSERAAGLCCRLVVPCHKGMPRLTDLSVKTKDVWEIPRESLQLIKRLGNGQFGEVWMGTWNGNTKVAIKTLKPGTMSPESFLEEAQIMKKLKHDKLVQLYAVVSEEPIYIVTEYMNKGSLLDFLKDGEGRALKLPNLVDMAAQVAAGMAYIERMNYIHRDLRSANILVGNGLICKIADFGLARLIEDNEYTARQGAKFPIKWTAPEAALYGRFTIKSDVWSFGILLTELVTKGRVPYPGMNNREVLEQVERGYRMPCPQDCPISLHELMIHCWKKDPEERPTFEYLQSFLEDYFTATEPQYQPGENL

For `Oc1c(I)cc(I)c2cccnc12` [IODOQUINOL], the IC50 [1] was “Not Active”, the Ki [1] was “Not Active” and the IC50 [2] was “Not Active”. The Ki [2] was “Not Active”, the IC50 [3] was “Not Active” and the Ki [3] was “Not Active”. For the same compound, the IC50 [4] was “Not Active”, the IC50 ([5]; cho-k1) was “Not Active” and the IC50 [6] was “Not Active”. The IC50 ([7]; read-out: IC50) was 1570 nM, the IC50 [8] was “Not Active” and the IC50 [9] was “Not Active”. The IC50 [10] was “Not Active”, the Ki [10] was “Not Active” and the IC50 [11] was “Not Active”. For the same compound, the IC50 [12] was “Not Active” and the IC50 [13] was “Not Active”.
In the case of `NNC(=O)c1ccncc1` [ISONIAZID], the IC50 [1] is reported as “Not Active”, the Ki [1] is reported as “Not Active” and the IC50 [2] is reported as “Not Active”. The Ki [2] was “Not Active”, the IC50 [3] was “Not Active” and the Ki [3] was “Not Active”. The IC50 [4] was “Not Active”, the IC50 ([5]; cho-k1) was “Not Active” and the IC50 [6] was “Not Active”. The IC50 ([7]; insect cells) was “Not Active”, the IC50 [8] was “Not Active” and the IC50 [9] was “Not Active”. For the same compound, the IC50 [10] was “Not Active”, the Ki [10] was “Not Active” and the IC50 [11] was “Not Active”. The IC50 [12] was “Not Active” and the IC50 [13] was “Not Active”.
With `CC1=C(/C=C/C(C)=C/C=C/C(C)=C\C(=O)O)C(C)(C)CCC1` [ISOTRETINOIN] the IC50 [1] was “Not Active”, the Ki [1] was “Not Active” and the IC50 [2] was “Not Active”. The Ki [2] was “Not Active”, the IC50 [3] was “Not Active” and the Ki [3] was “Not Active”. For the same compound, the IC50 [4] was “Not Active”, the IC50 ([5]; cho-k1) was “Not Active” and the IC50 [6] was “Not Active”. The IC50 ([7]; insect cells) was “Not Active”, the IC50 [8] was “Not Active” and the IC50 [9] was “Not Active”. For the same compound, the IC50 [10] was “Not Active”, the Ki [10] was “Not Active” and the IC50 [11] was “Not Active”. For the same compound, the IC50 [12] was “Not Active” and the IC50 [13] was “Not Active”.
For `CO[C@@H]1[C@@H](O[C@@H]2O[C@H](C)[C@@H](O[C@H]3C[C@@](C)(O)[C@@H](OC(=O)CC(C)C)[C@H](C)O3)[C@H](N(C)C)[C@H]2O)[C@@H](CC=O)C[C@@H](C)[C@@H](O)/C=C/C=C/C[C@@H](C)OC(=O)C[C@H]1O` [KITASAMYCIN], the IC50 [1] was “Not Active”, the Ki [1] was “Not Active” and the IC50 [2] was “Not Active”. For the same compound, the Ki [2] was “Not Active”, the IC50 [3] was “Not Active” and the Ki [3] was “Not Active”. The IC50 [4] was “Not Active”, the IC50 ([5]; cho-k1) was “Not Active” and the IC50 [6] was “Not Active”. The IC50 ([7]; insect cells) was “Not Active”, the IC50 [8] was “Not Active” and the IC50 [9] was “Not Active”. The IC50 [10] was “Not Active”, the Ki [10] was “Not Active” and the IC50 [11] was “Not Active”. The IC50 [12] was “Not Active” and the IC50 [13] was “Not Active”.
With `CC(CCc1ccccc1)NCC(O)c1ccc(O)c(C(N)=O)c1` (stereo unspecified) [LABETALOL] the IC50 [1] was “Not Active”, the Ki [1] was “Not Active” and the IC50 [2] was “Not Active”. For the same compound, the Ki [2] was “Not Active”, the IC50 [3] was “Not Active” and the Ki [3] was “Not Active”. The IC50 [4] was “Not Active”, the IC50 ([5]; read-out: IC50) was 1610 nM and the Ki ([5]; read-out: Ki) was 1280 nM. The IC50 [6] was “Not Active”, the IC50 ([7]; insect cells) was “Not Active” and the IC50 [8] was “Not Active”. For the same compound, the IC50 [9] was “Not Active”, the IC50 [10] was “Not Active” and the Ki [10] was “Not Active”. The IC50 [11] was “Not Active”, the IC50 [12] was “Not Active” and the IC50 [13] was “Not Active”.
